Values of other authors, collected in patent US20220296511A1, “COMPOSITIONS FOR DELIVERY OF DRUG COMBINATIONS TO TREAT LUNG DISEASE” (BOARD OF REGENTS, THE UNIVERSITY OF TEXAS SYSTEM, priority 2021, published 2022).
Read-outs that look alike come from different tables or passages of the source.

Columns and labels:
[1] = rats, 50 mg/mL MFF suspension for nebulization
[2] = 150 mg oral dose
[3] = phase 3 trial
[4] = not given; remark: listed apart in the source
[5] = not given; remark: listed apart in the source

COc1c(C)c2c(c(O)c1C/C=C(\C)CCC(=O)O)C(=O)OC2 [mycophenolic acid]
therapeutic range (in vivo): 1.0 to 3.5 µg/mL | maximum plasma concentration decreased by food (oral): 40% | lung concentration of mycophenolic acid as % of serum concentration [1]: ~30%

COC(=O)c1ccc2c(c1)NC(=O)/C2=C(\Nc1ccc(N(C)C(=O)CN2CCN(C)CC2)cc1)c1ccccc1 [nintedanib]
half-life [2]: 9.49 h | plasma concentration [2]: 0.12 ng/mL/mg | diarrhea reported ([3]; most common adverse reaction): 66.9% | reduction of FVC ([3]; nintedanib group): −80.0 mL per year

Cc1ccc(=O)n(-c2ccccc2)c1 [pirfenidone]
plasma concentration ([4]; 801 mg oral dose): 5 µg/mL | lung concentration ([4]; 801 mg oral dose, worked out from plasma concentration): 0.7 µg/g | lung tissue concentration as percentage of plasma concentration ([4]; IV dose 40 mg/kg): nine | pirfenidone decreased by food ([4]; oral): 50% | aerosol epithelial lining fluid (ELF) concentration relative to 801 mg oral ([5]; 100 mg aerosol pirfenidone): 35 times | systemic exposure less than the oral delivery ([5]; 100 mg inhalation dose): 15 fold
